Measured values as given in the supplement of paper PMC10883282.

Key:
Test in all cases: relative viability vs DMSO control (72 h) (fraction); higher = more viable cells
G401 = test system: G401
Summary of the method: (§1)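 A 5 µM positive control and 0.1% DMSO vehicle ran alongside sarcoma cell lines seeded in 384-well plates to reach 80–90% confluence. Serially diluted compound, 2.5 µl from source plates of 10 mM to 0.0002 mM, was added after 24 h, and the plates were held 72 h at 37 °C, 5% CO2. Relative viability was worked out from ATPLite readings as percent growth averaged over up to triplicate wells. The values were rescaled so that 1 is full and 0 is none.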

KHOS-240S = test system: KHOS-240S
Summary of the method: as §1

SW1353 = test system: SW1353
Summary of the method: as §1

SYO-1 = test system: SYO-1
Summary of the method: as §1

SW982 = test system: SW982
Summary of the method: as §1

HT1080 = test system: HT1080
Summary of the method: as §1

KHOS-NP = test system: KHOS-NP
Summary of the method: as §1

SW872 = test system: SW872
Summary of the method: as §1

SW684 = test system: SW684
Summary of the method: as §1

RD-ES = test system: RD-ES
Summary of the method: as §1

A204 = test system: A204
Summary of the method: as §1

SK-ES-1 = test system: SK-ES-1
Summary of the method: as §1

O=C(Nc1nc2cccc(-c3ccc(CN4CCS(=O)(=O)CC4)cc3)n2n1)C1CC1 [Filgotinib]
Conditions	relative viability
A204, 0.00017 µM	1.09
A204, 0.00051 µM	1.15
A204, 0.00152 µM	1.07
A204, 0.00457 µM	1.068
A204, 0.01372 µM	1.06
A204, 0.04115 µM	1.14
A204, 0.1235 µM	1.13
A204, 0.3704 µM	1.1
A204, 1.111 µM	1.12
A204, 3.333 µM	1.14
A204, 10 µM	0.974
G401, 0.00017 µM	0.988
G401, 0.00051 µM	1.04
G401, 0.00152 µM	1.027
G401, 0.00457 µM	1.03
G401, 0.01372 µM	1.01
G401, 0.04115 µM	0.995
G401, 0.1235 µM	1.04
G401, 0.3704 µM	1.01
G401, 1.111 µM	1.03
G401, 3.333 µM	1.01
G401, 10 µM	0.911
HT1080, 0.00017 µM	1.11
HT1080, 0.00051 µM	1.127
HT1080, 0.00152 µM	1.066
HT1080, 0.00457 µM	1.06
HT1080, 0.01372 µM	1.08
HT1080, 0.04115 µM	1.1
HT1080, 0.1235 µM	1.08
HT1080, 0.3704 µM	1.12
HT1080, 1.111 µM	1.09
HT1080, 3.333 µM	1.13
HT1080, 10 µM	1.12
KHOS-240S, 0.00017 µM	1.04
KHOS-240S, 0.00051 µM	1.08
KHOS-240S, 0.00152 µM	1.06
KHOS-240S, 0.00457 µM	1.08
KHOS-240S, 0.01372 µM	1.07
KHOS-240S, 0.04115 µM	1.07
KHOS-240S, 0.1235 µM	1.03
KHOS-240S, 0.3704 µM	1.06
KHOS-240S, 1.111 µM	1.054
KHOS-240S, 3.333 µM	1.02
KHOS-240S, 10 µM	0.932
KHOS-NP, 0.00017 µM	1.09
KHOS-NP, 0.00051 µM	1.12
KHOS-NP, 0.00152 µM	1.1
KHOS-NP, 0.00457 µM	1.101
KHOS-NP, 0.01372 µM	1.1
KHOS-NP, 0.04115 µM	1.1
KHOS-NP, 0.1235 µM	1.085
KHOS-NP, 0.3704 µM	1.085
KHOS-NP, 1.111 µM	1.08
KHOS-NP, 3.333 µM	1.1
KHOS-NP, 10 µM	1.09
RD-ES, 0.00017 µM	0.932
RD-ES, 0.00051 µM	0.886
RD-ES, 0.00152 µM	0.957
RD-ES, 0.00457 µM	0.946
RD-ES, 0.01372 µM	0.928
RD-ES, 0.04115 µM	0.944
RD-ES, 0.1235 µM	0.949
RD-ES, 0.3704 µM	0.957
RD-ES, 1.111 µM	0.978
RD-ES, 3.333 µM	0.924
RD-ES, 10 µM	0.925
SK-ES-1, 0.00017 µM	1.02
SK-ES-1, 0.00051 µM	1.06
SK-ES-1, 0.00152 µM	1.07
SK-ES-1, 0.00457 µM	1.04
SK-ES-1, 0.01372 µM	1.06
SK-ES-1, 0.04115 µM	1.07
SK-ES-1, 0.1235 µM	1.04
SK-ES-1, 0.3704 µM	1.03
SK-ES-1, 1.111 µM	1
SK-ES-1, 3.333 µM	1.05
SK-ES-1, 10 µM	0.8196
SW684, 0.00017 µM	1.13
SW684, 0.00051 µM	1.19
SW684, 0.00152 µM	1.211
SW684, 0.00457 µM	1.19
SW684, 0.01372 µM	1.16
SW684, 0.04115 µM	1.19
SW684, 0.1235 µM	1.18
SW684, 0.3704 µM	1.19
SW684, 1.111 µM	1.18
SW684, 3.333 µM	1.16
SW684, 10 µM	1.09
SW872, 0.00017 µM	1.07
SW872, 0.00051 µM	1.02
SW872, 0.00152 µM	1.05
SW872, 0.00457 µM	1.03
SW872, 0.01372 µM	1.04
SW872, 0.04115 µM	1.01
SW872, 0.1235 µM	1.02
SW872, 0.3704 µM	1.02
SW872, 1.111 µM	1.03
SW872, 3.333 µM	1.02
SW872, 10 µM	0.933
SW982, 0.00017 µM	1
SW982, 0.00051 µM	1.04
SW982, 0.00152 µM	1.06
SW982, 0.00457 µM	1.08
SW982, 0.01372 µM	1.05
SW982, 0.04115 µM	1.06
SW982, 0.1235 µM	1.02
SW982, 0.3704 µM	1.06
SW982, 1.111 µM	1.02
SW982, 3.333 µM	1.06
SW982, 10 µM	0.939
SW1353, 0.00017 µM	1.06
SW1353, 0.00051 µM	1.09
SW1353, 0.00152 µM	1.05
SW1353, 0.00457 µM	1.01
SW1353, 0.01372 µM	1.04
SW1353, 0.04115 µM	1
SW1353, 0.1235 µM	0.981
SW1353, 0.3704 µM	1.02
SW1353, 1.111 µM	1
SW1353, 3.333 µM	0.985
SW1353, 10 µM	0.968
SYO-1, 0.00017 µM	0.992
SYO-1, 0.00051 µM	0.995
SYO-1, 0.00152 µM	0.957
SYO-1, 0.00457 µM	0.97
SYO-1, 0.01372 µM	0.907
SYO-1, 0.04115 µM	0.903
SYO-1, 0.1235 µM	0.872
SYO-1, 0.3704 µM	0.843
SYO-1, 1.111 µM	0.7846
SYO-1, 3.333 µM	0.724
SYO-1, 10 µM	0.551
